According to PMC9791335 (Heliyon, 2022):

Target: lysine-specific demethylase 1 (LSD1) (Homo sapiens, UniProt O60341)
Experiment: HRP-coupled fluorescence
Type: biochemical

In the case of `COc1cc(CNC(=O)CCCCCCC(C)C)ccc1O` [DHC, dihydrocapsaicin], the “% inhibition at 10 μM” value is reported as 76.5.
